Measured values taken from US20250122456A1, “MICRO-PHY[…] FOR IMMUNE RESPONSE MODELING” (priority 2023, published 2025).

Test system: gut-liver interaction with immune cells
Assay: donor-matched gut-liver interaction with immune cells challenged with Poly:IC
Assay type: cell-based, human
Details: intestinal challenge, mimicking viral infection, FIG. 12
From the text: A single-cell RNA sequencing characterization of 3 donor-matched blood, gut and liver tissue is shown at 1202. On top, T cell clustering per tissue is shown, including PBMCS (PB), liver (L), and gut lamina propria (LP) and intraepithelial space (IEL). On the bottom, a distribution of major T cell subtypes per tissue is shown including CD4 T cells, CD8 T cells, and gamma-delta T cells. […] The interacting system was challenged with Poly:IC mimicking viral infection. […] On the bottom, liver albumin production data compare the three conditions.

Substance: Poly: IC
- inflammatory cytokines detected in common media: significant induction
